The source of these data is patent US7091345B2, “Amino-substituted dihydropyrimido[4,5-D]pyrimidinone derivatives” (Hoffmann-La Roche Inc., priority 2002, dated 2006).

For one experiment, the target named is T1, Src (p60^c-src) (Homo sapiens, UniProt P12931).
T1 construct: purchased Upstate (UBI)
Put plainly: SRC-Inhibitor-Assay, time-resolved fluorescence kinase assay (Src). The note with it: ATP 5 μM; enzyme 2.5 U/ml; pre-incubation 15 min at 15° C.; read-out: IC 50 (src). Type of experiment: biochemical. On the procedure:
(§1) The activity of the compounds according to this invention as inhibitors for the src-family tyrosine kinases was shown by using the following assay.
(§2) SRC-Inhibitor-Assay Parameters:
(§3) Assay buffer: 4 mM MgCl2 • 2 mM TCEP • 50 mM HEPES • 0,1% Tween 20 • pH 7.3
(§4) Material: Eu-labelled phosphotyrosine antibody:—for Lck Cisbio Mab PT66-K, for Src EG&G Wallac PT66 Eu-W1024 (all commercially available). Peptides: Ro: NH2-A-E-E-E-I-Y-G-E-F-E-A-K-K-K-K-CONH2, and Ja133-Ro: Ja133-G-Aminocaprylic acid-A-E-E-E-I-Y-G-E-F-E-A-K-K-K-K-CONH2, wherein Ja133 is LightCycler-Red 640-N-hydroxy succinimide ester; whereby both peptides were synthesized by an optimized solid phase peptide synthesis protocol (Merrifield, Fed. Proc. Fed. Amer. Soc. Exp. Biol. 21 (1962) 412) on a Zinsser SMP350 peptide synthesizer. Shortly, the peptide was assembled on 160 mg (22.8 μmol scale) of a Rink-Linker modified polystyrene solid phase by repeatedly conjugating an twenty fold excess of amino acids each protected by temporary piperidine labile Fmoc- and permanent acid labile tert-Bu-, BOC— and Otert-Bu-groups depending on the side chain function. The substrate sequence AEEEIYGEFEAKKKK was N-terminal additionally mounted with the spacer amino acids Aminocaprylic acid and Glycin. After cleavage of the N-terminal temporary protecting group the still attached and protected peptide was labeled with a 1.5 fold amount of LightCycler-Red 640-N-hydroxy succinimide ester (purchased by Roche Diagnostics GmbH) and triethylamine. After 3 hrs. the resin was washed with Dimethylformamide and Isopropanol until the eluates of the blue resin got colourless. […] The substrate was finally isolated by a preparative reverse phase HPLC purification. The purification yielded 12.2 mg RP-HPLC single peak pure blue material (lyophilisate). The identity was proven by MALDI mass spectroscopy [2720.0]. Enzymes: Upstate Lck (p56^lck, active), Upstate Src (p60^c-src, partially purified) were purchased from UBI. Time-resolved Fluorescence Assay: Reader: Perkin Elmer, Wallac Viktor 1420-040 multilabel counter; Liquid handling system: Beckman Coulter, Biomek 2000. ATP, Tween 20, HEPES were purchased from Roche Molecular Biochemicals, MgCl2 and MnCl2 were purchased from Merck Eurolab, TCEP was purchased from Pierce, 384 Well low volume fluorescence plates was purchased from Falcon. Assay Description:
(§5) At first the enzyme is pre-incubated for 15 min. at 15° C. in aqueous solution with corresponding amounts of inhibitors according to this invention. Then the phosphorylation reaction is started by adding a reaction mixture, containing ATP, Peptide and PT66, and subsequent shaking. The proceeding of this reaction is immediately monitored using time resolved fluorescence spectroscopy in a suitable well plate reader.
(§6) The IC50-values can be obtained from the reaction rates by using a non-linear curve fit (Excelfit).

For a further experiment, the target named is T2, Lck (p56^lck) (Homo sapiens, UniProt P06239).
T2 construct: purchased Upstate (UBI)
Briefly: SRC-Inhibitor-Assay, time-resolved fluorescence kinase assay (Lck). Type of experiment: biochemical. The conditions noted are these: ATP 5 μM; enzyme 2.5 U/ml; pre-incubation 15 min at 15° C.; read-out: IC 50 (lck). On the procedure:
as §1, §2, §3, §4, §5, §6

The structures appear in SMILES notation. Structures can show the parent of a compound that is named as a salt.

T1 sequence (P12931 whole entry): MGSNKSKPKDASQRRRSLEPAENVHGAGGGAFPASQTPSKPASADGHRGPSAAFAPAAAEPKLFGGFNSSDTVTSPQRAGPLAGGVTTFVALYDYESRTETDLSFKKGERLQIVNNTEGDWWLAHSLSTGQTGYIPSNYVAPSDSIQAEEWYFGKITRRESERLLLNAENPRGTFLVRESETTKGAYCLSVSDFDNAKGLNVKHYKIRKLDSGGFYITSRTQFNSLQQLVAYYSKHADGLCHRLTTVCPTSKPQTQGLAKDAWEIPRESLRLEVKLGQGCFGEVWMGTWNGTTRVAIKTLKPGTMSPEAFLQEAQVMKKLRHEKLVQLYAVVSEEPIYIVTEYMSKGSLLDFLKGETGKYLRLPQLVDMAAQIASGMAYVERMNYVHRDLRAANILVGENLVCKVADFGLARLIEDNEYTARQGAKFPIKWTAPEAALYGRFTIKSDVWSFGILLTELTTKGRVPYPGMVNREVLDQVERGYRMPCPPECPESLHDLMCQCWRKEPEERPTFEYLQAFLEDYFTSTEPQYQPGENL
T2 sequence (P06239 whole entry, species assumed): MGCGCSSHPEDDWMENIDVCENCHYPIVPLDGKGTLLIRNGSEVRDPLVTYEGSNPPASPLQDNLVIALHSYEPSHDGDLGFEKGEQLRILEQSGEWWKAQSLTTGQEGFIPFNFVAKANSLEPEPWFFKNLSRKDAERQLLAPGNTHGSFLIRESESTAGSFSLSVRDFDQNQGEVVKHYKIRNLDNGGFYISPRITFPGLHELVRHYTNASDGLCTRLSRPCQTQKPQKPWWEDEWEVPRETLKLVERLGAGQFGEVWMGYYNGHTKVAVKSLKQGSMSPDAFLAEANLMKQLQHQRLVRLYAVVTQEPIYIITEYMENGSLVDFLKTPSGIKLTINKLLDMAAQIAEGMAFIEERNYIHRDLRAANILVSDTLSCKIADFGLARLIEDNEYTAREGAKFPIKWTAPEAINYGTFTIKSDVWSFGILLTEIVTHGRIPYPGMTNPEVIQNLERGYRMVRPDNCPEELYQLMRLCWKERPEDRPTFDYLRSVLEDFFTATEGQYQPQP

With `CC1c2cnc(Nc3ccc4c(c3)S(=O)(=O)CCO4)nc2N(C)C(=O)N1c1ccccc1Br` (single isomer, unassigned; enantiomer 1) [Example 8a, 3-(2-Bromo-phenyl)-7-(4,4-dioxo-3,4-dihydro-2H-4λ^6-benzo[1,4]oxathiin-6-ylamino)-1,4-dimethyl-3,4-dihydro-1H-pyrimido[4,5-d]pyrimidin-2-one; enantiomer 1], the values for the IC50 on Src (p60^c-src) and at Lck (p56^lck) were 0.4 nM and 8.1 nM, respectively.

As to `CC1c2cnc(Nc3ccc4c(c3)S(=O)(=O)CC(=O)N4C)nc2N(C)C(=O)N1c1ccccc1Br` (single isomer, unassigned; enantiomer 1) [Example 13-52, 3-(2-Bromo-phenyl)-1,4-dimethyl-7-(4-methyl-1,1,3-trioxo-1,2,3,4-tetrahydro-1λ^6-benzo[1,4]thiazin-7-ylamino)-3,4-dihydro-1H-pyrimido[4,5-d]pyrimidin-2-one; enantiomer 1], the IC50 at Src (p60^c-src) came to 0.019 nM; at Lck (p56^lck), 0.0246 nM.

Consider `CC1c2cnc(Nc3ccc4c(c3)S(=O)(=O)CCO4)nc2N(C)C(=O)N1c1ccccc1Br` (single isomer, unassigned; enantiomer 2) [Example 13-50, 3-(2-Bromo-phenyl)-7-(4,4-dioxo-3,4-dihydro-2H-4λ^6-benzo[1,4]oxathiin-6-ylamino)-1,4-dimethyl-3,4-dihydro-1H-pyrimido[4,5-d]pyrimidin-2-one; enantiomer 2], for which the IC50 on Src (p60^c-src) is 2970 nM; on Lck (p56^lck), 1340 nM.

Consider `CC1c2cnc(Nc3ccc4c(c3)S(=O)(=O)CC(=O)N4C)nc2N(C)C(=O)N1c1ccccc1Br` (single isomer, unassigned; enantiomer 2) [Example 13-51, 3-(2-Bromo-phenyl)-1,4-dimethyl-7-(4-methyl-1,1,3-trioxo-1,2,3,4-tetrahydro-1λ^6-benzo[1,4]thiazin-7-ylamino)-3,4-dihydro-1H-pyrimido[4,5-d]pyrimidin-2-one; enantiomer 2], for which the IC50 on Src (p60^c-src) was 2520 nM; on Lck (p56^lck), 1280 nM.

Consider `CN1C(=O)N(c2c(F)cccc2Br)Cc2cnc(Nc3ccc4c(c3)S(=O)(=O)CCO4)nc21` [Example 8, 3-(2-bromo-6-fluoro-phenyl)-7-(4,4-dioxo-3,4-dihydro-2H-4λ^6-benzo[1,4]oxathiin-6-ylamino)-1-methyl-3,4-dihydro-1H-pyrimido[4,5-d]pyrimidin-2-one], for which the values for the IC50 at Src (p60^c-src) and at Lck (p56^lck) were 1.8 nM and 4.7 nM, respectively.

As to `CN1CCS(=O)(=O)c2cc(Nc3ncc4c(n3)N(C)C(=O)N(c3c(F)cccc3Br)C4)ccc21` [Example 11, 3-(2-bromo-6-fluoro-phenyl)-1-methyl-7-(4-methyl-1,1-dioxo-1,2,3,4-tetrahydro-1lambda*6*-benzo[1,4]thiazin-7-ylamino)-3,4-dihydro-1H-pyrimido[4,5-d]pyrimidin-2-one], the IC50 amounted to 0.8 nM on Src (p60^c-src) and 4.3 nM at Lck (p56^lck).

As to `CN1Cc2ccc(Nc3ncc4c(n3)N(C)C(=O)N(c3ccccc3Br)C4)cc2C1` [Example 13-3, 3-(2-bromo-phenyl)-1-methyl-7-(2-methyl-2,3-dihydro-1H-isoindol-5-ylamino)-3,4-dihydro-1H-pyrimido[4,5-d]pyrimidin-2-one; hydrochloride salt], the IC50 at Src (p60^c-src) came out at 1.5 nM; at Lck (p56^lck), 4.2 nM.

On to `CN1C(=O)N(c2ccccc2Br)Cc2cnc(Nc3ccc4c(c3)S(=O)(=O)CO4)nc21` [Example 13-4, 3-(2-bromo-phenyl)-7-(3,3-dioxo-2,3-dihydro-3lambda*6*-benzo[1,3]oxathiol-5-ylamino)-1-methyl-3,4-dihydro-1H-pyrimido[4,5-d]pyrimidin-2-one], for which the IC50 at Src (p60^c-src) worked out at 17 nM; at Lck (p56^lck), 29.4 nM.

Regarding `CN1C(=O)N(c2ccccc2Br)Cc2cnc(Nc3ccc4c(c3)OCO4)nc21` [Example 13-8, 7-(benzo[1,3]dioxol-5-ylamino)-3-(2-bromo-phenyl)-1-methyl-3,4-dihydro-1H-pyrimido[4,5-d]pyrimidin-2-one], the IC50 at Src (p60^c-src) is 17 nM; on Lck (p56^lck) it was 20 nM.

With `CN1C(=O)c2ccc(Nc3ncc4c(n3)N(C)C(=O)N(c3c(F)cccc3Br)C4)cc2C1=O` [Example 13-16, 5-[6-(2-bromo-6-fluoro-phenyl)-8-methyl-7-oxo-5,6,7,8-tetrahydro-pyrimido[4,5-d]pyrimidin-2-ylamino]-2-methyl-isoindole-1,3-dione], the results for the IC50 at Src (p60^c-src) and at Lck (p56^lck) were 11 nM and 21 nM, respectively.

With `O=C1CS(=O)(=O)c2cc(Nc3ncc4c(n3)NC(=O)N(c3c(F)cccc3Br)C4)ccc2N1` [Example 13-29], the IC50 at Src (p60^c-src) is 2.5 nM; on Lck (p56^lck) it was 6.7 nM.

For the molecule `COc1ccc(Br)c(N2Cc3cnc(Nc4ccc5c(c4)S(=O)(=O)CCO5)nc3N(C)C2=O)c1` [Example 13-48, 3-(2-Bromo-5-methoxy-phenyl)-7-(4,4-dioxo-3,4-dihydro-2H-4λ^6-benzo[1,4]oxathiin-6-ylamino)-1-methyl-3,4-dihydro-1H-pyrimido[4,5-d]pyrimidin-2-one], the IC50 at Src (p60^c-src) came out at 72.8 nM; on Lck (p56^lck), 37.5 nM.

With `COc1cccc(F)c1N1Cc2cnc(Nc3ccc4c(c3)S(=O)(=O)CCO4)nc2N(C)C1=O` [Example 13-49, 7-(4,4-Dioxo-3,4-dihydro-2H-4λ^6-benzo[1,4]oxathiin-6-ylamino)-3-(2-fluoro-6-methoxy-phenyl)-1-methyl-3,4-dihydro-1H-pyrimido[4,5-d]pyrimidin-2-one], the results for the IC50 at Src (p60^c-src) and at Lck (p56^lck) were 7.2 nM and 5.4 nM, respectively.

As for `CN1C(=O)N(c2c(F)cccc2C#N)Cc2cnc(Nc3ccc4c(c3)S(=O)(=O)CCO4)nc21` [Example 13-53, 2-[7-(4,4-Dioxo-3,4-dihydro-2H-4λ^6-benzo[1,4]oxathiin-6-ylamino)-1-methyl-2-oxo-1,4-dihydro-2H-pyrimido[4,5-d]pyrimidin-3-yl]-3-fluoro-benzonitrile], the figures for the IC50 at Src (p60^c-src) and on Lck (p56^lck) were 4.3 nM and 12.9 nM, respectively.
